In ChEMBL document CHEMBL1240451, “Studies on chemical modification and biology of a natural product, gambogic acid (II): Synthesis and bioevaluation of gambogellic acid and its derivatives from gambogic acid as antitumor agents” (Eur J Med Chem, 2010):
Calls of active or inactive are those of the source. No cut-off for these calls is given here.

How the values were obtained:
A549 [1] = assay: cells; conditions: Homo sapiens, A549, 48 h
Description: Cytotoxicity against human A549 cells after 48 hrs by MTT assay

HT-29 [2] = assay: Ratio of compound IC50 to gambogic acid IC50 for human HT-29 cells; assay type: functional
A549 [3] = assay: Ratio of compound IC50 to gambogic acid IC50 for human A549 cells; assay type: functional
HT-29 [4] = assay: Cytotoxicity against human HT-29 cells after 48 hrs by MTT assay; assay type: functional, cell-based; conditions: HT-29, 48 h
BGC-823 [5] = assay: Cytotoxicity against human BGC823 cells after 48 hrs by MTT assay; assay type: functional, cell-based; conditions: BGC-823, 48 h
Bel-7402 [6] = assay: Cytotoxicity against human Bel7402 cells after 48 hrs by MTT assay; assay type: functional, cell-based; conditions: Bel-7402, 48 h
BGC-823 [7] = assay: Ratio of compound IC50 to gambogic acid IC50 for human BGC823 cells; assay type: functional
BGC-823 [8] = assay: Induction of apoptosis human BGC823 cells assessed as nuclear fragmentation at up to 8 uM after 20 hrs using Annexin-V/PI double-staining by light microscopic analysis; assay type: functional, cell-based
BGC-823 [9] = assay: Induction of apoptosis human BGC823 cells assessed as increase of apoptotic cells at 4 uM after 20 hrs using Annexin-V/PI double-staining by flow cytometry (reference value: 3.9%); assay type: functional
BGC-823 [10] = assay: Induction of apoptosis human BGC823 cells assessed as increase of apoptotic cells at 8 uM after 20 hrs using Annexin-V/PI double-staining by flow cytometry (reference value: 3.9%); assay type: functional
BGC-823 [11] = assay: Induction of apoptosis human BGC823 cells assessed as increase of apoptotic cells at 2 uM after 20 hrs using Annexin-V/PI double-staining by flow cytometry (reference value: 3.9%); assay type: functional
BGC-823 [12] = assay: Induction of apoptosis human BGC823 cells assessed as increase of apoptotic cells after 20 hrs using Annexin-V/PI double-staining by flow cytometry (reference value: 3.9%); assay type: functional, cell-based
Bel-7402 [13] = assay: Ratio of compound IC50 to gambogic acid IC50 for human Bel7402 cells; assay type: functional
BGC-823 [14] = assay: Induction of apoptosis human BGC823 cells assessed as morphological changes at up to 8 uM after 48 hrs using Annexin-V/PI double-staining by light microscopic analysis; assay type: functional, cell-based

| IC50 (A549 [1]) | Structure (SMILES) | Ratio IC50 (HT-29 [2]) | Ratio IC50 (A549 [3]) | IC50 (HT-29 [4]) | IC50 (BGC-823 [5]) | IC50 (Bel-7402 [6]) | Ratio IC50 (BGC-823 [7]) | Activity (BGC-823 [8]) | Activity (BGC-823 [9]) | Activity (BGC-823 [10]) | Activity (BGC-823 [11]) | Activity (BGC-823 [12]) | Ratio IC50 (Bel-7402 [13]) | Activity (BGC-823 [14]) |
| --- | --- | --- | --- | --- | --- | --- | --- | --- | --- | --- | --- | --- | --- | --- |
| 1.79 µM | C=C(C)C1CC[C@]2(C)CC1c1c(O)c3c(c(CC=C(C)C)c1O2)O[C@]12C(=C[C@@H]4C[C@@H]1C(C)(C)O[C@@]2(C/C=C(/C)C(=O)OC)C4=O)C3=O (some centres undefined) | 4 | 2 | 0.81 µM | 2.61 µM | 4.56 µM | – | – | – | – | – | – | – | – |
| 27.6 µM | C/C(=C/C[C@@]12OC(C)(C)[C@H]3C[C@@H](C=C4C(=O)c5c(O)c6c(c(CCC(C)(C)Cl)c5O[C@]431)O[C@]1(C)CC(=O)C(C(C)C)C6C1)C2=O)C(=O)O (some centres undefined) | – | – | 5.6 µM | 2.93 µM | 4.12 µM | – | – | – | – | – | – | – | – |
| 1.12 µM | C=C(C)C1CC[C@]2(C)CC1c1c(O)c3c(c(CC=C(C)C)c1O2)O[C@]12C(=C[C@@H]4C[C@@H]1C(C)(C)O[C@@]2(C/C=C(/C)C(=O)O)C4=O)C3=O (some centres undefined) [GAMBOGELLIC ACID] | – | 2 | 1.34 µM | 0.46 µM | 6.48 µM | – | – | – | – | – | – | – | – |
| 2.42 µM | COC(=O)/C(C)=C\C[C@@]12OC(C)(C)[C@H]3C[C@@H](C=C4C(=O)c5c(O)c6c(c(CC=C(C)C)c5O[C@]431)O[C@]1(C)CCC(C3(C)CO3)C6C1)C2=O (some centres undefined) | 4 | – | 0.49 µM | 0.92 µM | 4.38 µM | 2 | – | – | – | – | – | – | – |
| > 100 µM | C=C(C)C1CC[C@]2(C)CC1c1c(O)c3c(c(CCC(C)(C)Cl)c1O2)O[C@]12[C@@H]4C[C@H](C(=O)[C@]1(C/C=C(/C)C(=O)O)OC4(C)C)C(O)C2(O)C3=O (some centres undefined) | – | – | > 100 µM | > 100 µM | > 100 µM | – | – | – | – | – | – | – | – |
| 0.98 µM | C=C(C)C1CC[C@]2(C)CC1c1c(O)c3c(c(C/C=C(\C)CO)c1O2)O[C@]12C(=C[C@@H]4C[C@@H]1C(C)(C)O[C@@]2(C/C=C(/C)C(=O)OC)C4=O)C3=O (some centres undefined) | 14 | 2 | 0.24 µM | 0.62 µM | 13 µM | 2 | – | – | – | – | – | – | – |
| 1.56 µM | COC(=O)/C(C)=C\C[C@@]12OC(C)(C)[C@H]3C[C@@H](C=C4C(=O)c5c(O)c6c(c(C/C=C(\C)CO)c5O[C@]431)O[C@]1(C)CCC(=C(C)C)C6C1)C2=O | 14 | 2 | 0.14 µM | 1.42 µM | 11 µM | 2 | – | – | – | – | – | – | – |
| 5.55 µM | COC(=O)/C(C)=C\C[C@@]12OC(C)(C)[C@H]3C[C@@H](C=C4C(=O)c5c(O)c6c(c(CC=C(C)C)c5O[C@]431)O[C@]1(C)CCC(=C(C)C)C6C1)C2=O | 4 | – | 0.54 µM | 6.62 µM | 7.86 µM | – | – | – | – | – | – | – | – |
| 4.63 µM | C=C(C)C1CC[C@]2(C)CC1c1c(O)c3c(c(CCC(C)(C)Cl)c1O2)O[C@]12C(=C[C@@H]4C[C@@H]1C(C)(C)O[C@@]2(C/C=C(/C)C(=O)OC)C4=O)C3=O (some centres undefined) | – | – | 4.55 µM | 1.98 µM | 2.63 µM | 2 | – | – | – | – | – | – | – |
| 2.34 µM | COC(=O)/C(C)=C\C[C@@]12OC(C)(C)[C@H]3C[C@@H](C=C4C(=O)c5c(O)c6c(c(CC7OC7(C)C)c5O[C@]431)O[C@]1(C)CCC(=C(C)C)C6C1)C2=O (some centres undefined) | 14 | – | 0.12 µM | 2.53 µM | 8.1 µM | – | – | – | – | – | – | – | – |
| 1.24 µM | C=C(C)C1CC[C@]2(C)CC1c1c(O)c3c(c(CCC(C)(C)Cl)c1O2)O[C@]12C(=C[C@@H]4C[C@@H]1C(C)(C)O[C@@]2(C/C=C(/C)C(=O)O)C4=O)C3=O (some centres undefined) | – | 2 | 1.64 µM | 4 µM | 18.1 µM | – | – | – | – | – | – | – | – |
| 3.18 µM | C/C(=C/C[C@@]12OC(C)(C)[C@H]3C[C@@H](C=C4C(=O)c5c(O)c6c(c(CCC(C)(C)Cl)c5O[C@]431)O[C@]1(C)CCC(C3(C)CO3)C6C1)C2=O)C(=O)O (some centres undefined) | – | – | 1.33 µM | 0.28 µM | 0.44 µM | – | Active | 6.2% | 25.7% | 4.2% | Dose-dependent effect | 4.7 | Active |

| Structure (SMILES) | IC50 (A549 [1]) | Ratio IC50 (HT-29 [2]) | Ratio IC50 (A549 [3]) | IC50 (HT-29 [4]) | IC50 (BGC-823 [5]) | IC50 (Bel-7402 [6]) | Ratio IC50 (BGC-823 [7]) | Activity (BGC-823 [8]) | Activity (BGC-823 [9]) | Activity (BGC-823 [10]) | Activity (BGC-823 [11]) | Activity (BGC-823 [12]) | Ratio IC50 (Bel-7402 [13]) | Activity (BGC-823 [14]) |
| --- | --- | --- | --- | --- | --- | --- | --- | --- | --- | --- | --- | --- | --- | --- |
| CC(C)=CCC[C@]1(C)C=Cc2c(O)c3c(c(CC=C(C)C)c2O1)O[C@]12C(=C[C@@H]4C[C@H]1C(C)(C)O[C@@]2(C/C=C(/C)C(=O)O)C4=O)C3=O [GAMBOGIC ACID] | 3.65 µM | – | – | 3.52 µM | 2.83 µM | 2.08 µM | – | – | – | – | – | – | – | – |
